The record followed here is patent US20120040976A1, “SMALL MOLECULE IMMUNOMODULATORS FOR ALZHEIMER'S DISEASE” (HUMAN BIOMOLECULAR RESEARCH INSTITUTE, priority 2008, published 2012).

Bounds are passed on as bounds.

The subject of one series is TLR 10. The series can be described thus: TLR 10 transcription ratio, AD patient / control PBMCs (qPCR). It counts as cell-based, human. As to conditions: Aβ stimulation. The procedure:
(§1) qPCR reactions of cultured monocyte cDNAs. One μL total cellular cDNA per reaction is used in triplicate reactions for each test gene, and for each culture treatment. SYBR-Green reactions were run on a Continuous Fluorescence real-time thermocycler and analyzed. Cycle threshold (Ct) values are recorded for each replicate reaction, and are then averaged and normalized against mean Ct values from one or more control genes. Fold-expression differences relative to untreated cells are determined using the 2^−ΔΔCt method as previously described. Data from the curcumin concentration range are plotted in order to determine EC50 values (concentrations producing one-half maximal stimulant activity), which are used for comparisons of potency between different compounds. Data are also evaluated for each gene with regard to sensitivity, maximally effective concentration of curcuminoid, response to Aβ, and overall magnitude of fold-expression changes.
(§2) MGAT3 and/or TLR transcription were tested by qPCR in human monocyte cells treated with curcuminoids and compared the results to those treated with vehicle (Table 7). As discussed above, activation or up-regulation of macrophage MGAT3 or TLR's results in many functional outcomes, including the enhancement of […] and removal of Aβ, increased apoptosis, secretion of inflammatory cytokines, and other anti-AD antimicrobial activities. […]
On the technique in general: Real-time PCR tracks product formation cycle by cycle.

Series [1] in a line: Metabolic stability in human liver microsomes. It is filed as in vitro ADME. Conditions: human, read-out: Half life, t1/2 HLM.
Series [2] in a line: Metabolic stability in human S9 fraction. As to conditions: read-out: Half life, t1/2 S9. It counts as in vitro ADME.
The next series relates to TLR 6. Nature of the series: TLR 6 transcription ratio, AD patient / control PBMCs (qPCR). Conditions: Aβ stimulation. It is filed as cell-based, human. The procedure:
as §1, §2

Series [3] has as its system human monocytic cell line U-937. The series can be described thus: Protection of U-937 cells against oxidative stress (H2O2, Trypan-blue viability). It is filed as cell-based. The procedure: Protective effect of curcumin against oxidative stress. We tested the potential of curcumin to protect cells in vitro under conditions of oxidative stress. Natural curcumin has been reported to have antioxidant activity and to scavenge free radicals, but reports of the direct effects of curcumin or analogs upon cell viability under conditions of oxidative stress are limited. Viability of the human monocytic cell line U-937 was evaluated in the presence of H2O2, plus varying concentrations of natural BDC (range 0-10 nM). We observed that these cells are more sensitive to oxidative stress than are the neuroblastoma SHSY5Y cells, and so reduced concentrations of H2O2 were used for this experiment. […] However, concentrations of BDC between 0.1-10 nM (i.e. similar concentration range inducing maximal gene expression increases +Aβ in these cells) increased 2-hour cell survival rates up to 90%. […] Assays such as Trypan-blue staining, or other biochemical measures of cell toxicity/survival (e.g. ATP levels) may be useful for evaluating curcumin analogs for their neuroprotective effects against oxidative stress and as candidate AD or ALS drugs.

A further series concerns TLR 4. The series can be described thus: TLR 4 transcription ratio, AD patient / control PBMCs (qPCR). It is filed as cell-based, human. As to conditions: Aβ stimulation. The gist of the method:
(§3)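 Via qPCR on cultured human monocyte cDNA, curcuminoid-treated versus vehicle, with Aβ stimulation, in AD patient and control cells. SYBR-Green triplicate reactions; Ct averaged, normalised to control genes, fold change by 2^−ΔΔCt. EC50 taken from curcumin concentration-response data.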

Series [4] concerns cortical neurons in hAPP-transfected rat brain slices. The series can be described thus: Rat brain slice AD model (hAPP-induced neurodegeneration). It is filed as cell-based. Conditions: rat brain slices transfected with EYFP and hAPP, three concentrations, 72 hrs (FIG. 8). From the text: A rodent brain slice model for AD has been developed where the expression of human APP by particle-mediated gene transfer (“biolistics”) leads to typical signs of neuronal dystrophy, and ultimately the degeneration and clearance of the cell body with a few days. Brain slice preparations offer a powerful experimental system because they preserve the three-dimensional tissue architecture and local environment of neurons and glia far better than dissociated cell culture. As such, drug lead candidates that show neuroprotective activity in brain-tissue based disease models have a much increased ability to predict efficacy in vivo and ultimately in the clinic.
Preparation of Brain Slice Explants. Cd Sprague-Dawley Rat Pups are Used at Postnatal day 10. Brains are cut into 250 μm coronal slices on a vibratome in chilled medium baths. Approximately 6 such slices can be cut from each rat brain; each are divided into “hemi-coronal” slices which are placed in individual 6-well transwell inserts. […]
Assessment of cortical neuron health. […] Representative images are captured using a digital camera on a fluorescence microscope. After 3 days, cortical neurons are scored. […] Statistical significance of the neuronal counts in compound-treated slices is evaluated by ANOVA analysis, followed by post hoc Dunnett's analysis at the p≦0.05 confidence level. […]

For the next series, the system named is TLR 9. Nature of the series: TLR 9 transcription ratio, AD patient / control PBMCs (qPCR). It counts as cell-based, human. As to conditions: Aβ stimulation. The procedure:
as §1, §2

A further series concerns TLR 1. Nature of the series: TLR 1 transcription ratio, AD patient / control PBMCs (qPCR). As to conditions: Aβ stimulation. It counts as cell-based, human. The procedure:
as §1, §2

The test system of the next series is TLR 2. Nature of the series: TLR 2 transcription ratio, AD patient / control PBMCs (qPCR). It is filed as cell-based, human. As to conditions: Aβ stimulation. Summed up: as §3
The subject of another series is MGAT3. The series can be described thus: MGAT3 transcription ratio, AD patient / control PBMCs (qPCR). It counts as cell-based, human. Conditions: Aβ stimulation. Summed up:
as §3

Take `O=C(/C=C(O)/C=C/c1ccc(O)cc1)/C=C/c1ccc(O)cc1` [Compound 1, 5-Hydroxy-1,7-bis-(4-hydroxy-phenyl)-hepta-1,4,6-trien-3-one, reference compound]: in the series on TLR 10, the “Relative ratio of TLR 10 transcription in AD patient / control PBMC's” value is recorded as “TLR 10 ++ ((++) indicates a ratio of 1.5-2.0)”. Besides, in the series “Anti-oxidant activity”, the IC50 (as a rule, the concentration that inhibits the measured activity by half) was more than 250 µM. Moreover, the half-life in series [1] was found to be 16.4 min; in [2] it was 4 min. The “Relative ratio of TLR 6 transcription in AD patient / control PBMC's” value with TLR 6 was “TLR 6 + ((+) indicates a ratio of 1.0-1.5)”. Moreover, the “2-hour cell survival rate” value in series [3] (U-937, 100 μM H2O2, BDC 0.1-10 nM, Trypan-blue) is recorded as “up to 90%”. The “Cell viability above 0.1-10 nM concentration range” value in series [3] (U-937, in combination with H2O2) is listed as “decreased”. For the same compound, the “Relative ratio of TLR 4 transcription in AD patient / control PBMC's” value with TLR 4 is “TLR 4 +++ ((+++ to ++++) indicates a ratio of 2.0 and above)”. In addition, the “Neuroprotective effect against hAPP-induced neurodegeneration” value in series [4] is “dose-dependent trend for AD related neuroprotection”. Moreover, the “Relative ratio of TLR 9 transcription in AD patient / control PBMC's” value in the series with TLR 9 is “TLR 9 ++ ((++) indicates a ratio of 1.5-2.0)”. The “Relative ratio of TLR 1 transcription in AD patient / control PBMC's” value in the series on TLR 1 is given as “TLR 1 ++ ((++) indicates a ratio of 1.5-2.0)”. Moreover, the “Relative ratio of TLR 2 transcription in AD patient / control PBMC's” value in the series on TLR 2 is “TLR 2 + ((+) indicates a ratio of 1.0-1.5)”. In addition, in the series on MGAT3, the “Relative ratio of MGAT3 transcription in AD patient / control PBMC's” value is on record as “++ ((++) indicates a ratio of 1.5-2.0)”.
